Laboratory results taken from patent US4155912A, “2-Methylpenem-3-carboxylic acid antibiotics” (Bristol-Myers Company, priority 1977, dated 1979).
Converted amounts (≈) assume the structure as drawn. Read-outs that look alike come from different tables or passages of the source.

Assays:
[1] = Mouse blood levels after oral administration; format: in vivo
Excerpt: Blood level values represent averages of 4 experiments for
d,l-2-methylpenem-3-carboxylic acid, 3 for ampicillin and 1 for
Assay Organism: Bacillus megaterium A-9737

[2] = in vivo; details: mouse, im, 40 mg/kg
[3] = system: bacteria; details: as reported in literature; cited from earlier work
[4] = system: β-lactamases; details: as reported in literature; cited from earlier work
[5] = system: bacteria; details: as reported in literature; cited from earlier work; remark: listed apart in the source
[6] = system: Str. pneumoniae A-9585; assay: MIC by tube dilution, Str. pneumoniae A-9585; format: cell-based; details: Streptococcus pneumoniae, A9585, Str. pneumoniae A-9585, overnight, 37° C.
Description: (§1) The in vitro minimum inhibitory concentrations (MIC) of d,l-2-methylpenem-3-carboxylic acid, (+)-2-methylpenem-3-carboxylic acid and (-)-2-methylpenem-3-carboxylic acid were determined for a number of microorganisms as determined by overnight incubation at 37° C. by tube dilution. Ampicillin was included as a comparison compound.

[7] = system: Str. pyogenes A-9604; assay: MIC by tube dilution, Str. pyogenes A-9604; format: cell-based; details: Streptococcus pyogenes, A9604, Str. pyogenes A-9604, overnight, 37° C.
Description: as §1

[8] = system: Staph. aureus A-9537; assay: MIC by tube dilution, Staph. aureus A-9537; format: cell-based; details: Staphylococcus aureus, 37° C.
Description: as §1

[9] = system: Staph. aureus (Pen-Res) A-9606; assay: MIC by tube dilution, Staph. aureus (Pen-Res) A-9606; format: cell-based; details: overnight, 37° C.
Description: as §1

[10] = system: Staph. aureus (Meth-Res) A-15097; assay: MIC by tube dilution, Staph. aureus (Meth-Res) A-15097; format: cell-based; details: overnight, 37° C.
Description: as §1

[11] = system: Str. faecalis A-20688; assay: MIC by tube dilution, Str. faecalis A-20688; format: cell-based; details: 37° C.
Description: as §1

[12] = system: E. coli A-15119; assay: MIC by tube dilution, E. coli A-15119; format: cell-based; details: 37° C.
Description: as §1

[13] = system: E. coli A-20341-1; assay: MIC by tube dilution, E. coli A-20341-1; format: cell-based; details: 37° C.
Description: as §1

[14] = system: K. pneumoniae A-15130; assay: MIC by tube dilution, K. pneumoniae A-15130; format: cell-based; details: 37° C.
Description: as §1

[15] = system: K. pneumoniae A-20468; assay: MIC by tube dilution, K. pneumoniae A-20468; format: cell-based; details: 37° C.; for MIC: Klebsiella pneumoniae, A20468, overnight
Description: as §1

[16] = system: Pr. mirabilis A-9900; assay: MIC by tube dilution, Pr. mirabilis A-9900; format: cell-based; details: 37° C.
Description: as §1

[17] = system: Pr. vulgaris A-9716; assay: MIC by tube dilution, Pr. vulgaris A-9716; format: cell-based; details: 37° C.
Description: as §1

[18] = system: Pr. morganii A-15153; assay: MIC by tube dilution, Pr. morganii A-15153; format: cell-based; details: 37° C.
Description: as §1

[19] = system: Pr. rettgeri A-21205; assay: MIC by tube dilution, Pr. rettgeri A-21205; format: cell-based; details: 37° C.; for M.I.C.: Pr. rettgeri A-21205, overnight
Description: as §1

[20] = system: Ser. marcescens A-20019; assay: MIC by tube dilution, Ser. marcescens A-20019; format: cell-based; details: 37° C.
Description: as §1

[21] = system: Ent. cloacae A-9659; assay: MIC by tube dilution, Ent. cloacae A-9659; format: cell-based; details: 37° C.
Description: as §1

[22] = system: Ent. cloacae A-9656; assay: MIC by tube dilution, Ent. cloacae A-9656; format: cell-based; details: 37° C.
Description: as §1

[23] = system: Ps. aeruginosa A-9843A; assay: MIC by tube dilution, Ps. aeruginosa A-9843A; format: cell-based; details: overnight, 37° C.
Description: as §1

[24] = system: Ps. aeruginosa A-21213; assay: MIC by tube dilution, Ps. aeruginosa A-21213; format: cell-based; details: 37° C.; for MIC: Pseudomonas aeruginosa, A21213, Ps. aeruginosa A-21213, overnight
Description: as §1

[25] = blood, oral, 100 mg./kg., 5 minutes after administration, read-out: Blood Level
[26] = blood, oral, 100 mg./kg., 10 minutes after administration, read-out: Blood Level
[27] = blood, oral, 100 mg./kg., 15 minutes after administration, read-out: Blood Level
[28] = blood, oral, 100 mg./kg., 30 minutes after administration, read-out: Blood Level
[29] = blood, oral, 100 mg./kg., 45 minutes after administration, read-out: Blood Level

CC1(C)S[C@@H]2[C@H](NC(=O)[C@H](N)c3ccccc3)C(=O)N2[C@H]1C(=O)O [Ampicillin] gave a concentration at 5 min ([1]; in vivo, po, 100 mg/kg) of 2100 ng/mL, a concentration at 10 min ([1]; in vivo, po, 100 mg/kg) of 3900 ng/mL and a concentration at 0.25 h ([1]; in vivo, po, 100 mg/kg) of 6100 ng/mL. The concentration at 0.5 h ([1]; in vivo, po, 100 mg/kg) was 8200 ng/mL, the concentration at 0.75 h ([1]; in vivo, po, 100 mg/kg) was 6100 ng/mL and the concentration at 1 h ([1]; in vivo, po, 100 mg/kg) was 7900 ng/mL. The concentration at 2 h ([1]; in vivo, po, 100 mg/kg) was 2800 ng/mL, the concentration at 5 min [2] was 20800 ng/mL and the concentration at 0.25 h [2] was 22800 ng/mL. The concentration at 0.5 h [2] was 20000 ng/mL, the concentration at 0.75 h [2] was 11800 ng/mL and the concentration at 1 h [2] was 7100 ng/mL.

For O=C(O)C1C(=CCO)OC2CC(=O)N21 (stereo not drawn) [clavulinic acid], the antibacterial activity [3] is listed as “low order of antibacterial activity”, the β-lactamase inhibition [4] is listed as “inhibits the action of certain β-lactamases” and the “effect on in vitro and in vivo activity of some penicillins and cephalosporins” value [5] is listed as “enhances the in vitro and in vivo activity of some penicillins and cephalosporins”.

In the case of C[C@@H](O)[C@H]1C(=O)N2C(C(=O)O)=C(SCCN)C[C@H]12 [Thienamycin], the antibacterial activity [3] is given as “highly potent broad-spectrum antibiotic”.

Molecule CC1=C(C(=O)O)N2C(=O)C[C@H]2S1 (racemic) [d,l-2-methylpenem-3-carboxylic acid, 2-Methylpenem-3-carboxylic Acid] has an MIC [6] of 0.03 µg/mL (≈ 0.162 µM), an MIC [7] of 0.13 µg/mL (≈ 0.702 µM) and an MIC ([8]; A9537, Staph. aureus A-9537, overnight) of 0.13 µg/mL (≈ 0.702 µM). The MIC ([8]; A9537, Staph. aureus A-9537 and 50% serum, overnight) was 8 µg/mL (≈ 43.2 µM), the MIC ([9]; Staphylococcus aureus) was 1 µg/mL (≈ 5.4 µM) and the MIC ([10]; Staphylococcus aureus) was 1 µg/mL (≈ 5.4 µM). For the same molecule, the MIC ([11]; Enterococcus faecalis, A20688, Str. faecalis A-20688, overnight) was 32 µg/mL (≈ 173 µM), the MIC ([12]; Escherichia coli, A15119, E. coli A-15119, overnight) was 8 µg/mL (≈ 43.2 µM) and the MIC ([13]; Escherichia coli, A203411, E. coli A-20341-1, overnight) was 16 µg/mL (≈ 86.4 µM). It also gave an MIC ([14]; Klebsiella pneumoniae, A15130, K. pneumoniae A-15130, overnight) of 16 µg/mL (≈ 86.4 µM), an MIC [15] greater than 125 µg/mL and an MIC ([16]; Proteus mirabilis, A9900, Pr. mirabilis A-9900, overnight) of 8 µg/mL (≈ 43.2 µM). For the same molecule, the MIC ([17]; Proteus vulgaris, A9716, Pr. vulgaris A-9716, overnight) was 8 µg/mL (≈ 43.2 µM), the MIC ([18]; Morganella morganii, A15153, Pr. morganii A-15153, overnight) was 16 µg/mL (≈ 86.4 µM) and the MIC ([19]; Providencia rettgeri, A21205, Pr. rettgeri A-21205, overnight) was 4 µg/mL (≈ 21.6 µM). The MIC ([20]; Serratia marcescens, A20019, Ser. marcescens A-20019, overnight) was 8 µg/mL (≈ 43.2 µM), the MIC ([21]; Enterobacter cloacae, A9659, Ent. cloacae A-9659, overnight) was 16 µg/mL (≈ 86.4 µM) and the MIC ([22]; Enterobacter cloacae, A9656, Ent. cloacae A-9656, overnight) was 16 µg/mL (≈ 86.4 µM). The MIC ([23]; Pseudomonas aeruginosa, A9843A) was 125 µg/mL (≈ 675 µM), the MIC [24] was greater than 125 µg/mL and the concentration at 5 min [1, 25] was 28000 ng/mL. It also gave a concentration at 10 min [1, 26] of 25100 ng/mL, a concentration at 0.25 h [1, 27] of 18400 ng/mL and a concentration at 0.5 h [1, 28] of less than 5600 ng/mL. It also gave a concentration at 0.75 h [1, 29] of less than 3900 ng/mL, a concentration at 1 h ([1]; blood, oral, 100 mg./kg., 60 minutes after administration, read-out: Blood Level) of less than 4300 ng/mL and a concentration at 2 h ([1]; blood, oral, 100 mg./kg., 120 minutes after administration, read-out: Blood Level) of less than 4300 ng/mL. The concentration at 5 min [2] was 27100 ng/mL, the concentration at 0.25 h [2] was 12700 ng/mL and the concentration at 0.5 h [2] was less than 5900 ng/mL. For the same molecule, the concentration at 0.75 h [2] was less than 5900 ng/mL and the concentration at 1 h [2] was less than 5900 ng/mL.

Molecule CC1=C(C(=O)O)N2C(=O)C[C@H]2S1 [d-2-methylpenem-3-carboxylic acid, (+)-2-methylpenem-3-carboxylic Acid] has an MIC [15] greater than 125 µg/mL, a M.I.C. [19] of 4 meg./ml and a M.I.C. [23] of 32 meg./ml. The MIC [24] was 63 µg/mL (≈ 340 µM).

In the case of CC1=C(C(=O)O)N2C(=O)C[C@H]2S1 [l-2-methylpenem-3-carboxylic acid, (-)-2-methylpenem-3-carboxylic Acid], the M.I.C. [9] is reported as greater than 125 meg./ml, the M.I.C. [10] is reported as greater than 125 meg./ml and the M.I.C. ([11]; Str. faecalis A-20688, overnight) is reported as 125 meg./ml. The M.I.C. ([12]; E. coli A-15119, overnight) was greater than 125 meg./ml, the M.I.C. ([13]; E. coli A-20341-1, overnight) was greater than 125 meg./ml and the M.I.C. ([14]; K. pneumoniae A-15130, overnight) was greater than 125 meg./ml. It also gave a M.I.C. ([15]; overnight) greater than 125 meg./ml, a M.I.C. ([16]; Pr. mirabilis A-9900, overnight) greater than 125 meg./ml and a M.I.C. ([17]; Pr. vulgaris A-9716, overnight) greater than 125 meg./ml. The M.I.C. ([18]; Pr. morganii A-15153, overnight) was greater than 125 meg./ml, the M.I.C. [19] was greater than 125 meg./ml and the M.I.C. ([20]; Ser. marcescens A-20019, overnight) was greater than 125 meg./ml. The M.I.C. ([21]; Ent. cloacae A-9659, overnight) was greater than 125 meg./ml, the M.I.C. ([22]; Ent. cloacae A-9656, overnight) was greater than 125 meg./ml and the M.I.C. [23] was greater than 125 meg./ml. The M.I.C. ([24]; Ps. aeruginosa A-21213, overnight) was greater than 125 meg./ml.

CC1(C)S[C@@H]2[C@H](NC(=O)[C@H](N)c3ccc(O)cc3)C(=O)N2[C@H]1C(=O)O [Amoxicillin] showed a concentration at 5 min [1, 25] of 1500 ng/mL, a concentration at 10 min [1, 26] of 7100 ng/mL and a concentration at 0.25 h [1, 27] of 9900 ng/mL. The concentration at 0.5 h [1, 28] was 14000 ng/mL and the concentration at 0.75 h [1, 29] was 15500 ng/mL.

In the case of CC(=O)NC=C[S+]([O-])C1=C(C(=O)O)N2C(=O)C(C(C)OS(=O)(=O)O)C2C1 (stereo not drawn), the antibacterial activity [3] is given as “some antibacterial activity” and the β-lactamase inhibition [4] is given as “β-lactamase inhibitor”.
